Values of other authors, collected in patent publication US20040047835A1, “Combinatorial drug therapy using polymer drug conjugates” (priority 2002, published 2004).
Read-outs that look alike come from different tables or passages of the source.

Tests used:
tumor-bearing hosts = settings: compared with free (unconjugated) paclitaxel
ovarian Oca-1 carcinoma = settings: equivalent paclitaxel dose of 60 mg/kg 24 h after tumor irradiation; versus radiation and paclitaxel
mammary MCa-4 tumor = mammary MCa-4 tumor model; radiation preceded drug injection

Molecule | effect on cell cycle (cell cycle) | anti-tumor activity / efficacy (tumor-bearing hosts) | anti-tumor activity / efficacy (tumor-bearing hosts; listed as PGTXL) | tumor growth delay, combined with radiation (ovarian Oca-1 carcinoma) | interaction of combined radiation and drug (mammary MCa-4 tumor)
poly(L-glutamic acid)-paclitaxel [PG-TXL] | induced a G2/M arrest | increased efficacy | superior anti-tumor activity | significantly greater tumor growth delay | synergistic interaction
CC(=O)O[C@H]1C(=O)[C@@]2(C)[C@H]([C@H](OC(=O)c3ccccc3)[C@]3(O)C[C@H](OC(=O)[C@H](O)[C@@H](NC(=O)c4ccccc4)c4ccccc4)C(C)=C1C3(C)C)[C@]1(OC(C)=O)CO[C@@H]1C[C@@H]2O [paclitaxel, reference compound] | induced a G2/M arrest | – | – | – | additive or sub-additive interaction
